Consider 32 compounds from the supplement of paper PMC9663587.

Experiment [1] concerns HCC1428. The experiment is described as follows: area over the GR curve, 72 h; higher = more effect.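 Also: Dye Drop or Deep Dye Drop imaging of viable cells in 384-well plates (Hoechst nuclei, LIVE/DEAD dye), nine half-log doses, GR normalized to DMSO controls and time-zero plates.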
Experiment [2] deals with HCC1500. The experiment is described as follows: area over the GR curve, 72 h; higher = more effect.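 Also: Dye Drop or Deep Dye Drop imaging of viable cells in 384-well plates (Hoechst nuclei, LIVE/DEAD dye), nine half-log doses, GR normalized to DMSO controls and time-zero plates.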

With `CC(=O)Nc1cccc(-n2c(=O)n(C3CC3)c(=O)c3c(Nc4ccc(I)cc4F)n(C)c(=O)c(C)c32)c1` (max 1 µM), the “area over the GR curve” value came to 0.0695 GR in experiment [1] and 0.212 GR in experiment [2].

Consider `CCc1cnn2c(NCc3ccc[n+]([O-])c3)cc(N3CCCC[C@H]3CCO)nc12` (max 1 µM), for which the “area over the GR curve” value in experiment [1] is 0.656 GR; in experiment [2] it was 0.662 GR.

Regarding `CC(=O)c1c(C)c2cnc(Nc3ccc(N4CCNCC4)cn3)nc2n(C2CCCC2)c1=O` (max 3.162 µM), the “area over the GR curve” value was determined as 0.314 GR in experiment [1] and 0.11 GR in experiment [2].

`CCc1cncnc1N1CCN(Cc2nc3ccc(C(F)(F)F)cc3[nH]2)CC1` (max 10 µM): the “area over the GR curve” value in experiment [1] was -0.0224 GR; in experiment [2] it was 0.182 GR.

With `CCN1CCN(Cc2ccc(Nc3ncc(F)c(-c4cc(F)c5nc(C)n(C(C)C)c5c4)n3)nc2)CC1` (max 10 µM), the figures for the “area over the GR curve” value in experiment [1] and in experiment [2] were 0.636 GR and 0.342 GR, respectively.

Take `Cc1nn(C)c(COc2ccc(N3CCN(S(=O)(=O)N(C)C)CC3)cc2)c1-c1cccc2c(CCCOc3cccc4ccccc34)c(C(=O)O)n(CCN3CCOCC3)c12` (max 10 µM): the “area over the GR curve” value in experiment [1] is -0.0325 GR; in experiment [2], -0.063 GR.

Take `CN(C)CC[C@H](CSc1ccccc1)Nc1ccc(S(=O)(=O)NC(=O)c2ccc(N3CCN(Cc4ccccc4-c4ccc(Cl)cc4)CC3)cc2)cc1[N+](=O)[O-]` [ABT-737] (max 10 µM): the “area over the GR curve” value was found to be 0.111 GR in experiment [1] and 1.13 GR in experiment [2].

As to `NC(=O)Nc1cc(-c2cccc(F)c2)sc1C(=O)N[C@H]1CCCNC1` [AZD7762] (max 10 µM), the “area over the GR curve” value was determined as 0.323 GR in experiment [1] and 0.614 GR in experiment [2].

Regarding `Cc1nc(NC(=O)N2CCC[C@H]2C(N)=O)sc1-c1ccnc(C(C)(C)C(F)(F)F)c1` [Alpelisib/BYL719] (max 10 µM), the entries for the “area over the GR curve” value in experiment [1] and in experiment [2] were 0.0107 GR and -0.0097 GR, respectively.

Regarding `Cc1c(N)nc([C@H](CC(N)=O)NC[C@H](N)C(N)=O)nc1C(=O)N[C@H](C(=O)N[C@H](C)[C@@H](O)[C@H](C)C(=O)N[C@H](C(=O)NCCc1nc(-c2nc(C(=O)NCCC[S+](C)C)cs2)cs1)[C@@H](C)O)[C@@H](OC1OC(CO)C(O)C(O)C1OC1OC(CO)C(O)C(OC(N)=O)C1O)c1cnc[nH]1` (some centres undefined) [Bleomycin] (max 10 µM), the “area over the GR curve” value is 0.178 GR in experiment [1] (main component drawn) and 0.147 GR in experiment [2] (main component drawn).

For the compound `Nc1cc(C(F)(F)F)c(-c2cc(N3CCOCC3)nc(N3CCOCC3)n2)cn1` [Buparlisib/NVP-BKM120] (max 10 µM), the figures for the “area over the GR curve” value in experiment [1] and in experiment [2] were 0.344 GR and 0.512 GR, respectively.

`COc1cc2nccc(Oc3ccc(NC(=O)C4(C(=O)Nc5ccc(F)cc5)CC4)cc3)c2cc1OC` [Cabozantinib] (max 10 µM): the results for the “area over the GR curve” value in experiment [1] and in experiment [2] were 0.0108 GR and -0.0192 GR, respectively.

As for `COc1cc2c(Oc3ccc4[nH]c(C)cc4c3F)ncnc2cc1OCCCN1CCCC1` [Cediranib/AZD2171] (max 10 µM), the “area over the GR curve” value in experiment [1] was 0.189 GR; in experiment [2], 0.0909 GR.

In the case of `Cc1cc(Nc2ncc(Cl)c(Nc3ccccc3S(=O)(=O)C(C)C)n2)c(OC(C)C)cc1C1CCNCC1` [Ceritinib/LDK378] (max 10 µM), the “area over the GR curve” value in experiment [1] was 0.295 GR; in experiment [2], 0.274 GR.

In the case of `N.N.[Cl][Pt][Cl]` [Cisplatin] (max 10 µM), the “area over the GR curve” value in experiment [1] came to 0.221 GR; in experiment [2], 0.0866 GR.

For `Cc1nc(Nc2ncc(C(=O)Nc3c(C)cccc3Cl)s2)cc(N2CCN(CCO)CC2)n1` [Dasatinib] (max 10 µM), the “area over the GR curve” value came out at 0.256 GR in experiment [1] and 0.925 GR in experiment [2].

As for `COc1cccc2c1C(=O)c1c(O)c3c(c(O)c1C2=O)C[C@@](O)(C(=O)CO)C[C@@H]3O[C@H]1C[C@H](N)[C@H](O)[C@H](C)O1` [Doxorubicin] (max 3.162 µM), the results for the “area over the GR curve” value in experiment [1] and in experiment [2] were 0.895 GR and 0.751 GR, respectively.

Regarding `COc1cc([C@@H]2c3cc4c(cc3[C@@H](O[C@@H]3O[C@@H]5CO[C@@H](C)O[C@H]5[C@H](O)[C@H]3O)[C@H]3COC(=O)[C@H]23)OCO4)cc(OC)c1O` [Etoposide] (max 10 µM), the “area over the GR curve” value worked out at 0.39 GR in experiment [1] and 0.218 GR in experiment [2].

Turning to `CO[C@H]1C[C@@H]2CC[C@@H](C)[C@@](O)(O2)C(=O)C(=O)N2CCCC[C@H]2C(=O)O[C@H]([C@H](C)C[C@@H]2CC[C@@H](OCCO)[C@H](OC)C2)CC(=O)[C@H](C)/C=C(\C)[C@@H](O)[C@@H](OC)C(=O)[C@H](C)C[C@H](C)/C=C/C=C/C=C/1C` [Everolimus] (max 10 µM), the “area over the GR curve” value in experiment [1] amounted to 0.519 GR; in experiment [2], 1.26 GR.

Take `CC(C)n1nc(-c2ccc3oc(N)nc3c2)c2c(N)ncnc21` [INK128/MLN0128] (max 3.162 µM): the “area over the GR curve” value in experiment [1] was 0.648 GR; in experiment [2], 1.23 GR.

For `CC(C)NC[C@@H](C(=O)N1CCN(c2ncnc3c2[C@H](C)C[C@H]3O)CC1)c1ccc(Cl)cc1` [Ipatasertib/GDC0068] (max 10 µM), the “area over the GR curve” value was -0.0745 GR in experiment [1] and -0.0881 GR in experiment [2].

With `CCNC(=O)c1noc(-c2cc(C(C)C)c(O)cc2O)c1-c1ccc(CN2CCOCC2)cc1` [Luminespib/NVP-AUY922] (max 1 µM), the figures for the “area over the GR curve” value in experiment [1] and in experiment [2] were 0.637 GR and 0.546 GR, respectively.

As for `CCOc1cc2ncc(C#N)c(Nc3ccc(OCc4ccccn4)c(Cl)c3)c2cc1NC(=O)/C=C/CN(C)C` [Neratinib/HKI272] (max 3.162 µM), the “area over the GR curve” value in experiment [1] amounted to 0.101 GR; in experiment [2] it was 0.165 GR.

As for `O=C(c1cc(Cc2n[nH]c(=O)c3ccccc23)ccc1F)N1CCN(C(=O)C2CC2)CC1` [Olaparib/AZD2281] (max 10 µM), the “area over the GR curve” value in experiment [1] was determined as 0.323 GR; in experiment [2] it was 0.0931 GR.

Regarding `CC(=O)O[C@H]1C(=O)[C@@]2(C)[C@H]([C@H](OC(=O)c3ccccc3)[C@]3(O)C[C@H](OC(=O)[C@H](O)[C@@H](NC(=O)c4ccccc4)c4ccccc4)C(C)=C1C3(C)C)[C@]1(OC(C)=O)CO[C@@H]1C[C@@H]2O` [Paclitaxel] (max 1 µM), the “area over the GR curve” value in experiment [1] was 0.507 GR; in experiment [2] it was 0.609 GR.

In the case of `CS(=O)(=O)N1CCN(Cc2cc3nc(-c4cccc5[nH]ncc45)nc(N4CCOCC4)c3s2)CC1` [Pictilisib/GDC0941] (max 10 µM), the “area over the GR curve” value worked out at 0.117 GR in experiment [1] and 0.203 GR in experiment [2].

Consider `CN1CCN(CCOc2cc(OC3CCOCC3)c3c(Nc4c(Cl)ccc5c4OCO5)ncnc3c2)CC1` [Saracatinib/AZD0530] (max 10 µM), for which the “area over the GR curve” value in experiment [1] was 0.0609 GR; in experiment [2], 0.433 GR.

For `Cc1cc(C(C)Nc2ccccc2)c2nc(N3CCOCC3)cc(=O)n2c1` (centres undefined) [TGX221] (max 10 µM), the “area over the GR curve” value in experiment [1] is 0.0058 GR; in experiment [2], 0.0613 GR.

Take `Cc1nc(-c2cn3c(n2)-c2ccc(-c4cnn(C(C)(C)C(N)=O)c4)cc2OCC3)n(C(C)C)n1` [Taselisib/GDC0032] (max 10 µM): the “area over the GR curve” value in experiment [1] came out at 0.139 GR; in experiment [2] it was 0.209 GR.

With `O=C1NC(=O)[C@@H](c2cn3c4c(cccc24)CCC3)[C@@H]1c1c[nH]c2ccccc12` [Tivantinib/ARQ197] (max 10 µM), the results for the “area over the GR curve” value in experiment [1] and in experiment [2] were 0.345 GR and 0.491 GR, respectively.

As to `CC[C@@]1(O)C(=O)OCc2c1cc1n(c2=O)Cc2cc3c(CN(C)C)c(O)ccc3nc2-1` [Topotecan] (max 10 µM), the “area over the GR curve” value in experiment [1] is 0.835 GR; in experiment [2], 1.22 GR.

In the case of `Nc1ccc(-c2ccc3ncc4ccc(=O)n(-c5cccc(C(F)(F)F)c5)c4c3c2)cn1` [Torin2] (max 1 µM), the “area over the GR curve” value in experiment [1] turned out to be 0.439 GR; in experiment [2] it was 0.888 GR.
